From ChEMBL document CHEMBL5252553, “Synthesis and biological activities of drugs for the treatment of osteoporosis” (Eur J Med Chem, 2020)

Test: n-Octanol/water partition coefficient, log P of the compound
Format: physicochemical

## CCCCCCCCCCCCCC(=O)NCCCC(O)(P(=O)(O)O)P(=O)(O)O
  logP: 0.045

## CCCCCCCCCCCC(=O)NCCCC(O)(P(=O)(O)O)P(=O)(O)O
  logP: 0.027

## CCCCCCCCCCCCCCCC(=O)NCCCC(O)(P(=O)(O)O)P(=O)(O)O
  logP: 0.053

## CCCCCCCCCCCCCCCCCC(=O)NCCCC(O)(P(=O)(O)O)P(=O)(O)O
  logP: 0.063
